Data reported in PubChem BioAssay AID330 (DTP/NCI, 2004).
Several values for one entry are separate records, joined by “and”; a condition that tells them apart may be missing. Equal values may be shown once. Toxic doses and inconclusive results are not listed. Rule for the calls: active = survival T/C of 150% or more; inactive = T/C below 125% in these data.

Test system: P388 leukemia ip, CD2F1 mice, survival T/C
Assay: NCI In Vivo Anticancer Drug Screen. Data for tumor model P388 Leukemia (intraperitoneal) in CD2F1 (CDF1) mice
Conditions: endpoint: median survival time, higher = longer survival
How it was run: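 Mice carrying the transplanted tumor received test compound or vehicle. Survival was recorded in each group, and the value is the treated-group measurement divided by that of the vehicle-treated control group.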

[1] = dose: 50.0 mg/kg/injection, schedule: Q01DX009 (ip), vehicle: saline with Tween-80
[2] = dose: 100.0 mg/kg/injection, schedule: Q01DX009 (ip), vehicle: saline with Tween-80
[3] = dose: 200.0 mg/kg/injection, schedule: Q01DX009 (ip), vehicle: saline with Tween-80
[4] = dose: 50.0 mg/kg/injection, schedule: Q01DX005 (ip), vehicle: Klucel (hydroxypropylcellulose) (HPC)
[5] = dose: 50.0 mg/kg/injection, schedule: Q01DX005 (ip), vehicle: saline with Tween-80
[6] = dose: 100.0 mg/kg/injection, schedule: Q01DX005 (ip), vehicle: Klucel (hydroxypropylcellulose) (HPC)
[7] = dose: 100.0 mg/kg/injection, schedule: Q01DX005 (ip), vehicle: saline with Tween-80
[8] = dose: 200.0 mg/kg/injection, schedule: Q01DX005 (ip), vehicle: Klucel (hydroxypropylcellulose) (HPC)
[9] = dose: 200.0 mg/kg/injection, schedule: Q01DX005 (ip), vehicle: saline with Tween-80
[10] = dose: 60.0 mg/kg/injection, schedule: Q01DX005 (ip), vehicle: saline with Tween-80
[11] = dose: 120.0 mg/kg/injection, schedule: Q01DX005 (ip), vehicle: saline with Tween-80
[12] = dose: 240.0 mg/kg/injection, schedule: Q01DX005 (ip), vehicle: saline with Tween-80
[13] = dose: 50.0 mg/kg/injection, schedule: Q01DX009 (ip), vehicle: other
[14] = dose: 100.0 mg/kg/injection, schedule: Q01DX009 (ip), vehicle: other

Measured: T/C

O=C(O)CCC1(C(=O)O)NCCc2c1[nH]c1ccccc21 (stereo unspecified)
inactive: dose: 25.0 mg/kg/injection, schedule: Q01DX009 (ip), vehicle: suspension in saline 95 % of control | dose: 50.0 mg/kg/injection, schedule: Q01DX009 (ip), vehicle: suspension in saline 99 % of control | dose: 100.0 mg/kg/injection, schedule: Q01DX009 (ip), vehicle: suspension in saline 98 % of control

O=C1CC2C3C1N(c1ccc(Cl)cc1)C1(Nc4ccc(Cl)cc4)C(=O)CC(C31)N2c1ccc(Cl)cc1 (stereo unspecified)
inactive: dose: 7.5 mg/kg/injection, schedule: Q01DX005 (ip), vehicle: Klucel (hydroxypropylcellulose) (HPC) 104 % of control | dose: 15.0 mg/kg/injection, schedule: Q01DX005 (ip), vehicle: Klucel (hydroxypropylcellulose) (HPC) 101 % of control | dose: 30.0 mg/kg/injection, schedule: Q01DX005 (ip), vehicle: Klucel (hydroxypropylcellulose) (HPC) 92 % of control

COC(=O)C1C(=O)CC2C(C(=O)OC)C(=O)CC12 (stereo unspecified)
inactive: [1] 99 % of control | [2] 95 % of control | [3] 98 % of control

CC(=O)Nc1ccc(NC(=S)NC(=O)c2ccccc2)cc1
inactive: [1] 107 % of control | [2] 100 % of control | [3] 95 % of control

CCCCCCCCCCCCCCCC(O)CC(O)CC(O)CC1CC=CC(=O)O1 (stereo unspecified)
inactive: dose: 4.0 mg/kg/injection, schedule: Q01DX009 (ip), vehicle: Klucel (hydroxypropylcellulose) (HPC) 100 % of control | dose: 8.0 mg/kg/injection, schedule: Q01DX009 (ip), vehicle: Klucel (hydroxypropylcellulose) (HPC) 100 % of control | dose: 16.0 mg/kg/injection, schedule: Q01DX009 (ip), vehicle: Klucel (hydroxypropylcellulose) (HPC) 104 % of control | dose: 32.0 mg/kg/injection, schedule: Q01DX009 (ip), vehicle: Klucel (hydroxypropylcellulose) (HPC) 109 % of control

O=C1NC(=O)C2(CCCc3ccccc32)N1 (stereo unspecified)
inactive: [4] 101 % of control | [5] 97 % of control | [6] 104 % of control | [7] 94 % of control | [8] 104 % of control | [9] 94 % of control

COC(=O)/C=C(\C(=O)OC)C1=C(N2CCCC2)CC(C)(C)CC1=O
inactive: [4] 102 % of control | [6] 100 % of control and 95 % of control | [8] 100 % of control and 101 % of control

CC1(C)CCNc2ccccc2S1
inactive: dose: 100.0 mg/kg/injection, schedule: Q01DX001 (ip), vehicle: saline with Tween-80 103 % of control | dose: 200.0 mg/kg/injection, schedule: Q01DX001 (ip), vehicle: saline with Tween-80 103 % of control | dose: 400.0 mg/kg/injection, schedule: Q01DX001 (ip), vehicle: saline with Tween-80 100 % of control

CC(C)(C)C(=O)NC(OC(NC(=O)C(C)(C)C)C(=O)C(C)(C)C)C(=O)C(C)(C)C (stereo unspecified)
inactive: [10] 97 % of control | [11] 99 % of control | [12] 105 % of control

Nc1cccc(SC(CC(=O)c2ccc(-c3ccccc3)cc2)c2ccco2)c1 (stereo unspecified)
inactive: dose: 50.0 mg/kg/injection, schedule: Q01DX009 (ip), vehicle: Klucel (hydroxypropylcellulose) (HPC) 97 % of control | dose: 100.0 mg/kg/injection, schedule: Q01DX009 (ip), vehicle: Klucel (hydroxypropylcellulose) (HPC) 101 % of control

O=C(CCl)N/N=C(\Cc1ccccc1)c1ccccc1
inactive: [2] 97 % of control | [3] 98 % of control | dose: 400.0 mg/kg/injection, schedule: Q01DX009 (ip), vehicle: saline with Tween-80 103 % of control

O=C1CC2(CCCCC2)C(=O)N1c1ccc(-c2ccc(N3C(=O)CC4(CCCCC4)C3=O)cc2)cc1
inactive: dose: 100.0 mg/kg/injection, schedule: Q04DX002 (ip), vehicle: Klucel (hydroxypropylcellulose) (HPC) 89 % of control | dose: 200.0 mg/kg/injection, schedule: Q04DX002 (ip), vehicle: Klucel (hydroxypropylcellulose) (HPC) 88 % of control | dose: 400.0 mg/kg/injection, schedule: Q04DX002 (ip), vehicle: Klucel (hydroxypropylcellulose) (HPC) 91 % of control

CCNC(C)(C)C(SSSC(c1ccc(C(F)(F)F)cc1)C(C)(C)NCC)c1ccc(C(F)(F)F)cc1 (stereo unspecified)
inactive: dose: 25.0 mg/kg/injection, schedule: Q04DX003 (ip), vehicle: saline 107 % of control | dose: 50.0 mg/kg/injection, schedule: Q04DX003 (ip), vehicle: saline 107 % of control | dose: 100.0 mg/kg/injection, schedule: Q04DX003 (ip), vehicle: saline 103 % of control

N=C(N)c1ccc(NC(=O)c2ccc(C(=O)Nc3ccc(C(=N)N)cc3)c(N)c2)cc1
inactive: [5] 110 % of control | [7] 107 % of control | [9] 87 % of control

Cc1cc(O)c(CCC(C)CCCC(C)C)c(O)c1 (stereo unspecified)
inactive: [4] 100 % of control | [6] 100 % of control | [8] 110 % of control

COc1ccc2c3c1OC1C(O)C=CC4C(C2O)N(C)CCC341 (stereo unspecified)
inactive: dose: 50.0 mg/kg/injection, schedule: Q01DX005 (ip), vehicle: saline + Tween-80 + alcohol 100 % of control | dose: 100.0 mg/kg/injection, schedule: Q01DX005 (ip), vehicle: saline + Tween-80 + alcohol 100 % of control | dose: 200.0 mg/kg/injection, schedule: Q01DX005 (ip), vehicle: saline + Tween-80 + alcohol 100 % of control

CN1CCN(N=Nc2ccccc2Cl)CC1
inactive: dose: 12.5 mg/kg/injection, schedule: Q01DX009 (ip), vehicle: saline 99 % of control | dose: 25.0 mg/kg/injection, schedule: Q01DX009 (ip), vehicle: saline 111 % of control | dose: 50.0 mg/kg/injection, schedule: Q01DX009 (ip), vehicle: saline 103 % of control and 98 % of control

CCOC(=O)c1ccc(NC(N)=O)cc1
inactive: dose: 25.0 mg/kg/injection, schedule: Q01DX009 (ip), vehicle: other 101 % of control | [13] 102 % of control | [14] 98 % of control | dose: 200.0 mg/kg/injection, schedule: Q01DX009 (ip), vehicle: other 98 % of control | dose: 400.0 mg/kg/injection, schedule: Q01DX009 (ip), vehicle: other 93 % of control

Cc1ccc(NC(=O)N2CCCCC2)cc1NC(=O)N1CCCCC1
inactive: [10] 94 % of control | [11] 91 % of control | [12] 88 % of control

O=C(O)/C=N/NS(=O)(=O)c1ccc(Cl)cc1
inactive: dose: 6.25 mg/kg/injection, schedule: Q01DX009 (ip), vehicle: other 101 % of control | dose: 12.5 mg/kg/injection, schedule: Q01DX009 (ip), vehicle: other 122 % of control | [14] 99 % of control
active: [13] 159 % of control

COC(=O)C(Nc1ccc(OC)cc1)c1ccccc1 (stereo unspecified)
inactive: dose: 60.0 mg/kg/injection, schedule: Q01DX005 (ip), vehicle: Klucel (hydroxypropylcellulose) (HPC) 108 % of control | dose: 120.0 mg/kg/injection, schedule: Q01DX005 (ip), vehicle: Klucel (hydroxypropylcellulose) (HPC) 104 % of control | dose: 240.0 mg/kg/injection, schedule: Q01DX005 (ip), vehicle: Klucel (hydroxypropylcellulose) (HPC) 110 % of control

CNC(=O)Nc1ccc(/C(C)=N/NC(N)=S)cc1
inactive: [10] 96 % of control | [11] 89 % of control
